By refractive index is commonly meant a measure of how strongly the sample bends light. As usually defined, the vapor or sublimation pressure is the equilibrium pressure above the liquid or solid.

± gives the expanded uncertainty stated by the source.

A short description of data set [1]: refractive index (Na D-line) (dimensionless). Particulars: 293.15 K; 101.33 kPa; Liquid; Standard Abbe refractometry.
The conditions of data set [2]: Liquid, Ebulliometric method (Recirculating still).

In the case of `CCCCCCCCCC` [decane], the refractive index in data set [1] stood at 1.4122 ± 0.002. Besides, the figures for the “vapor or sublimation pressure” value in data set [2] (328.17 K), in data set [2] (338.17 K) and in data set [2] (348.16 K) were 1.18 ± 0.92 kPa, 1.93 ± 0.92 kPa and 3.24 ± 0.92 kPa, respectively.

For `CCO` [ethanol], the refractive index in data set [1] was found to be 1.3616 ± 0.002. Further, the “vapor or sublimation pressure” value came to 29.58 ± 0.97 kPa in data set [2] (323.21 K); 37.53 ± 0.98 kPa in data set [2] (328.17 K); 47.04 ± 1 kPa in data set [2] (333.21 K); 58.6 ± 1.1 kPa in data set [2] (338.17 K); 72.39 ± 1.1 kPa in data set [2] (343.21 K); 88.83 ± 1.1 kPa in data set [2] (348.16 K).

For `CCCCCCCCC` [nonane], the refractive index in data set [1] worked out at 1.4074 ± 0.002. Besides, the entries for the “vapor or sublimation pressure” value in data set [2] (323.21 K), in data set [2] (333.21 K) and in data set [2] (343.21 K) were 2.417 ± 0.92 kPa, 4.027 ± 0.92 kPa and 6.331 ± 0.92 kPa, respectively.
